Measured values: ChEMBL document CHEMBL1201862, “PubChem BioAssay data set” (2004)
Active and inactive are the calls of the source.

Legend:
[1] = inhibitors of clade B AD8 Env fusion, dose response, cell-based, cherry-pick (AID 652062); assay type: functional;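 also: luciferase signal from cell-cell fusion driven by HIV-1 clade B AD8 Env; potency is for inhibitors of fusion seen as a drop in luminescence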
[2] = target: Serine/threonine-protein phosphatase PP1-alpha catalytic subunit (Homo sapiens, UniProt P62136); assay: PP1 phosphatase inhibitors, dose response, biochemical, fluorescence (AID 2403);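 also: phosphatase turnover of OMFP into fluorescent 3-O-methylfluorescein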
Chain of Serine/threonine-protein phosphatase PP1-alpha catalytic subunit (P62136 whole entry): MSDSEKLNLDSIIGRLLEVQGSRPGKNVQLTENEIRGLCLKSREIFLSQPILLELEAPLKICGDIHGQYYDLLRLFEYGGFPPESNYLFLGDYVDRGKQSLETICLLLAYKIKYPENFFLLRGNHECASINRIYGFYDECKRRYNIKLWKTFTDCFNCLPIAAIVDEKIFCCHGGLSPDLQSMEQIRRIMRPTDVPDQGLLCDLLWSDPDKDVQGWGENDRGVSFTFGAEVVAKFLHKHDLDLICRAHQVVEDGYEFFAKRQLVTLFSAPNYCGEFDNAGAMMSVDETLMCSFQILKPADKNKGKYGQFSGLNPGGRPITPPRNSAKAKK

[3] = inhibitors of intracellular T. cruzi replication, confirmation, NIH3T3 host cells, beta-gal luminescence (AID 2044); assay type: functional, cell-based;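 also: intracellular parasites grown in NIH/3T3 mouse fibroblasts as host cells; luminescent beta-galactosidase reporter signal from transgenic T. cruzi replicating inside host cells; inhibitors lower the luminescence signal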
[4] = HepG2 cell cytotoxicity, dose response, cytotoxicity control for Shn3 inhibitor project, CellTiter-Glo, cherry-picked (AID 624134); assay type: functional, cell-based
[5] = CEM21 lymphoblast cell cytotoxicity, dose response, cytotoxicity control for viral fusion inhibitor project, CellTiter-Glo luminescence, cherry-picked (AID 652042); assay type: functional, cell-based;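 also: potency for signal decrease meaning cytotoxicity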
[6] = cells; assay type: functional, cell-based; details: HEK-CNG
[7] = system: Vero; assay: cells; assay type: functional; details: Chlorocebus sabaeus
[8] = Shn3 3'UTR reporter inhibitors, dose response, cell-based, Clone20 osteoblasts, firefly luciferase, cherry-picked (AID 624132); assay type: functional;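 also: firefly luciferase luminescence from reporter carrying the Shn3 3'UTR in osteoblasts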
[9] = target: T1, COUP transcription factor 2 (Homo sapiens, UniProt P24468); assay: Luminescence-based cell-based high throughput dose response assay to identify inhibitors of COUP-TFII (NR2F2).; assay type: functional;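 also: HEK293 cells transiently cotransfected with COUP-TFII expression vector and reporter; luciferase reporter luminescence driven by COUP-TFII from the pX2-168 reporter plasmid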
T1 sequence (P24468 whole entry): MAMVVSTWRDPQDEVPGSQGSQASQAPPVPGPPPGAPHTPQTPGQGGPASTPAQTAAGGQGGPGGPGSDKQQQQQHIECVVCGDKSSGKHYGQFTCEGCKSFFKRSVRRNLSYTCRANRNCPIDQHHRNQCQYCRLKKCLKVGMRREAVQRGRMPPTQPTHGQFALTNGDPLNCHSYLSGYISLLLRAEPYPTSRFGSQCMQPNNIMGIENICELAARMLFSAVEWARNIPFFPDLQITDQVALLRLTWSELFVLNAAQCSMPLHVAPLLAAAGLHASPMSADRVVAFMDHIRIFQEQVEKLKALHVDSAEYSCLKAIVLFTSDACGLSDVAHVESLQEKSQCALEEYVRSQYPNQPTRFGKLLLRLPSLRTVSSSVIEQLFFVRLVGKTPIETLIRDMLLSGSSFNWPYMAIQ

[10] = off-target signal loss in HeLa-CEM21 co-culture – HeLa F-luc CTL cells, cherry-picked, counter-screen for HIV-1 Env fusion inhibitor project, dose response (AID 652040); assay type: functional, cell-based;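 also: potency for signal decrease marking cytotoxic or nonspecific inhibition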
[11] = control 3'UTR Renilla luciferase suppression, dose response, counter-screen for Shn3 inhibitor project, cell-based, Clone20-Shn3RL, cherry-picked (AID 624133); assay type: functional
[12] = target: Serine/threonine-protein phosphatase (Homo sapiens, UniProt Q9BPW0); assay: Counterscreen for inhibitors of PP1: fluorescence-based biochemical high throughput dose response assay to identify inhibitors of Protein Phosphatase 5 (PP5). [Related pubchem assays: 2034 (Summary (PP5 inhibitors)), 1987 (PP5 inhibitors in singlate), 2235 (PP1 inhibitors in singlate)]
Chain of Serine/threonine-protein phosphatase (Q9BPW0 whole entry, the tested form may be a part): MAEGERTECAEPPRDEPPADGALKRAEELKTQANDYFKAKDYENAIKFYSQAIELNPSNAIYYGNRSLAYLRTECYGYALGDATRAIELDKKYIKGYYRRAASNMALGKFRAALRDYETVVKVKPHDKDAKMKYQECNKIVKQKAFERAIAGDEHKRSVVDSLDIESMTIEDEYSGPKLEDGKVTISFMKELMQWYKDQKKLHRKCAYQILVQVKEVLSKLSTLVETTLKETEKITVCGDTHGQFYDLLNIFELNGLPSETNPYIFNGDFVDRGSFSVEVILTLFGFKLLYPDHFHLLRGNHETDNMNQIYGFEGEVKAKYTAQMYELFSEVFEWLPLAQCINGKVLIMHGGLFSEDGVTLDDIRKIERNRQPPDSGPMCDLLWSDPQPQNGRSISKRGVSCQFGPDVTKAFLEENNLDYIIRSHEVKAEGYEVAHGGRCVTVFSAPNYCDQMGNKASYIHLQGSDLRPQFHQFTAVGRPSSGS

[13] = inhibitors of HIV Env-driven cell fusion, dose response, cherry-pick (AID 652057); assay type: functional, cell-based
[14] = ZM109 Env clade C HIV-1 fusion inhibitors, dose response, HeLa effector, CEM target cells, luciferase, cherry-pick (AID 652058); assay type: functional, cell-based
[15] = system: Streptococcus; assay: Group A Streptococcus viability loss, dose response, counter-screen for streptokinase expression inhibitor project, luminescence, BacTiterGlo (AID 1915); assay type: functional, organism-based;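 also: potency for reduction of bacterial viability or growth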
[16] = target: T2, Galanin receptor type 3 (Homo sapiens, UniProt O60755); assay: Fluorescence-based cell-based primary high throughput dose response assay to identify antagonists of the Galanin Receptor 3 (GalR3).; assay type: functional
T2 sequence (O60755 whole entry): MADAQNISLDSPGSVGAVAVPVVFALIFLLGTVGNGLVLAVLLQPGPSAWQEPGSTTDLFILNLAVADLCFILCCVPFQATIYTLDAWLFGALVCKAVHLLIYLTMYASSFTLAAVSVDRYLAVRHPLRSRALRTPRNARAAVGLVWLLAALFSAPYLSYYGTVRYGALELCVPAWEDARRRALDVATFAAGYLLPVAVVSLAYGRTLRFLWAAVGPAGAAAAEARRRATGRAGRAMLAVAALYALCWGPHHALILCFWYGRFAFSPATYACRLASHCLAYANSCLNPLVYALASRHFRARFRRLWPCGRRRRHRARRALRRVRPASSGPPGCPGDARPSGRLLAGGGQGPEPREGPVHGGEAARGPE

[17] = cytotoxicity toward NIH3T3 fibroblasts, dose response, counter-screen, cell-based, ATP luminescence, mouse fibroblasts (AID 2010); assay type: functional;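 also: cells exposed to compound for about 90 hours before reading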
[18] = system: Streptococcus sp. 'group A'; assay: growth inhibition of control SK(-) GAS strain, dose response, counter-screen for streptokinase expression inhibitor project, luminescence, kanamycin, BacTiterGlo, confirmation (AID 1900); assay type: functional, organism-based
[19] = target: Sphingosine 1-phosphate receptor 2 (Homo sapiens, UniProt O95136); assay: Dose Response Cell Based Assay for Antagonists of the S1P2 Receptor. [Related pubchem assays: 856, 736 ]; assay type: functional
Chain of Sphingosine 1-phosphate receptor 2 (O95136 whole entry): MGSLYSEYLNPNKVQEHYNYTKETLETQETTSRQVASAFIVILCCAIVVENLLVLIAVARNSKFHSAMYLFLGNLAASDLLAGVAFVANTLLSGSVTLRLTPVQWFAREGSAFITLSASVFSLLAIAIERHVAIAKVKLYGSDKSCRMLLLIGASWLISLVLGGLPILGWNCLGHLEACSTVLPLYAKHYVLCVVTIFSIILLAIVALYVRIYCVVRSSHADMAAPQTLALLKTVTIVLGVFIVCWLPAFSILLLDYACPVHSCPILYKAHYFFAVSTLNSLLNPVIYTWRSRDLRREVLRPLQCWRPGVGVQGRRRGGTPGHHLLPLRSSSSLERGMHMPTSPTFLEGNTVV

[20] = target: Cyclin-dependent kinase 5/CDK5 activator 1 (Homo sapiens, UniProt Q00535); assay: CDK5/p35 kinase inhibitors, dose response, biochemical, cherry-picked samples, set 2 (AID 504545)
Chain of Cyclin-dependent kinase 5/CDK5 activator 1 (Q00535 whole entry): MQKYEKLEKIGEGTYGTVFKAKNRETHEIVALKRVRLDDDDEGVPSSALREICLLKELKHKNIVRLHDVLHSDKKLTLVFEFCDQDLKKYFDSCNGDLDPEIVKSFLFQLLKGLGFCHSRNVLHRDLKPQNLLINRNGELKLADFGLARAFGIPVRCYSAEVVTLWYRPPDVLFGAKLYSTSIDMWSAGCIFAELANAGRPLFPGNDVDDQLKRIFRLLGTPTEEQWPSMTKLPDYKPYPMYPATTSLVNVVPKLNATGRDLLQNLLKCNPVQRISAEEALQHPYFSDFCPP
Chain of Cyclin-dependent kinase 5/CDK5 activator 1 (Q15078 whole entry, further chain): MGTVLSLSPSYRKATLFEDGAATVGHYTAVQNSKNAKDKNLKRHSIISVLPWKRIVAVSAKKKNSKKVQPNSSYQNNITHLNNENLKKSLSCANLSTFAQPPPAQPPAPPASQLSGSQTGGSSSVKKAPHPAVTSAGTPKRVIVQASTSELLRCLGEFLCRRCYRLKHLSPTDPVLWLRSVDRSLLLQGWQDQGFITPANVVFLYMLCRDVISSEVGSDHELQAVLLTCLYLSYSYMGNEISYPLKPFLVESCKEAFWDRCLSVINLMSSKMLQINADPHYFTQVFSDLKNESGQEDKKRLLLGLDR

[21] = target: Glyceraldehyde-3-phosphate dehydrogenase (Homo sapiens, UniProt P04406)
Chain of Glyceraldehyde-3-phosphate dehydrogenase (P04406 whole entry): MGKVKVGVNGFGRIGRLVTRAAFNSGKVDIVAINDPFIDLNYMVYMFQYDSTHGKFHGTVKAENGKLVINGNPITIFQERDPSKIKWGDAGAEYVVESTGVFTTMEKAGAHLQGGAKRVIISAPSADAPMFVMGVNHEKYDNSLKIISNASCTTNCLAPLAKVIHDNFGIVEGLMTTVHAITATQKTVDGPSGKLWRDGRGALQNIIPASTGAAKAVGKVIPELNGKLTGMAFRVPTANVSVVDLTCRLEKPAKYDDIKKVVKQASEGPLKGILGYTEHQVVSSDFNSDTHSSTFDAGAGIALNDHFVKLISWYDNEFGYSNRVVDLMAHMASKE

[22] = target: T3, Bcl-2-like protein 10 (Homo sapiens, UniProt Q9HD36); assay: displacers of TR3 peptide from Bcl-B, primary screen, selectivity assay for Bfl-1 inhibitor project, biochemical, fluorescence polarization, FITC-TR3 peptide (AID 748);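 also: fluorescence polarization from a fluorescein-labelled TR3 peptide binding purified Bcl-B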
T3 sequence (Q9HD36 whole entry): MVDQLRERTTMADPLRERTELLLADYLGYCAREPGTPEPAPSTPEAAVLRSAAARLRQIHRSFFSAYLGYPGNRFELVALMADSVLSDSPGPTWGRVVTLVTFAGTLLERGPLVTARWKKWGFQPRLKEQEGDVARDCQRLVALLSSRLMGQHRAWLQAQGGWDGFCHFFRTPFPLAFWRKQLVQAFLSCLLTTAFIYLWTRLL

[23] = target: Peroxisome proliferator-activated receptor gamma/Nuclear receptor corepressor 2 (Homo sapiens, UniProt P37231+Q9Y618); assay type: functional
[24] = target: Photoreceptor-specific nuclear receptor (Homo sapiens, UniProt Q9Y5X4); assay type: functional;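 also: potency for compounds that break the NR2E3 corepressor complex and count as activators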
Chain of Photoreceptor-specific nuclear receptor (Q9Y5X4 whole entry): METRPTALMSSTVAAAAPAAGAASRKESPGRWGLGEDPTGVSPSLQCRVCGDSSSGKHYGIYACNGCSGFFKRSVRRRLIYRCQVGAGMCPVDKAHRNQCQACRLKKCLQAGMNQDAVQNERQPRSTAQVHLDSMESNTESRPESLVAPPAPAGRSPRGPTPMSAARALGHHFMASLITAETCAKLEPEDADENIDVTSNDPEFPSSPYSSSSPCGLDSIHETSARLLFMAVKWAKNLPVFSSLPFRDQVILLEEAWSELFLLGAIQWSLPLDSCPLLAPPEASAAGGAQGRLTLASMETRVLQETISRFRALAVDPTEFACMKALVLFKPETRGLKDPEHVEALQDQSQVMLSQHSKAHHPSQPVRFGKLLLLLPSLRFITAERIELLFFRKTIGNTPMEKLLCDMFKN

[25] = target: Eukaryotic translation initiation factor 4H (Homo sapiens, UniProt Q15056); assay: human eIF4H binding inhibitors, primary screen, translation initiation inhibitor project, biochemical, uHTS, fluorescence polarization (AID 2012)
[26] = target: Polyadenylate-binding protein 1 (Homo sapiens, UniProt P11940); assay: PABP poly(A) RNA binding inhibitors, primary screen, biochemical, fluorescence polarization, uHTS (AID 2014)
Chain of Polyadenylate-binding protein 1 (P11940 whole entry): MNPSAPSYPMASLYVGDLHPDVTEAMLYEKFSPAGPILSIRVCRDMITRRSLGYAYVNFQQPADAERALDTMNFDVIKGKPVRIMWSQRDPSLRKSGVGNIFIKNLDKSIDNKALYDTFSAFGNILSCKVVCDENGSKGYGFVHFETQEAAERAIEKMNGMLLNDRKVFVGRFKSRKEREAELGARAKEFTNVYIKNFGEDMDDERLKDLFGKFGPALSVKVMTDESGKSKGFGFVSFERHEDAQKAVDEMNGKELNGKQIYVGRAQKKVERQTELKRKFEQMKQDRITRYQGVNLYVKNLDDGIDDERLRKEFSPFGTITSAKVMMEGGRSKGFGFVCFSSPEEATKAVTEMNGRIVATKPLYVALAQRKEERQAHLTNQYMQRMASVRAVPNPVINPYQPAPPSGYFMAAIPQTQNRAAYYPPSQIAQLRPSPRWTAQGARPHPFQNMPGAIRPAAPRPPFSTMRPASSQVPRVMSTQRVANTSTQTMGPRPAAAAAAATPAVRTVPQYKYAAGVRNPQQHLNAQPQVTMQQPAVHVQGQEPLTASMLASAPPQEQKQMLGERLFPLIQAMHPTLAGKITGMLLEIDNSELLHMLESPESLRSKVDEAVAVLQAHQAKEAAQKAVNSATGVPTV

[27] = target: Dual specificity tyrosine-phosphorylation-regulated kinase 1A (Rattus norvegicus, UniProt Q63470); assay type: biochemical, Homo sapiens
[28] = target: T4, Oxysterols receptor LXR-beta (Homo sapiens, UniProt P55055); assay: LXR agonists, Gal4 luciferase reporter, dose response, counter-screen for ssDAF-12 agonist project, cell-based, luminescence, HEK293, S. stercoralis campaign (AID 720737); assay type: functional; details: read-out: IC50 (the source's name)
T4 sequence (P55055 whole entry): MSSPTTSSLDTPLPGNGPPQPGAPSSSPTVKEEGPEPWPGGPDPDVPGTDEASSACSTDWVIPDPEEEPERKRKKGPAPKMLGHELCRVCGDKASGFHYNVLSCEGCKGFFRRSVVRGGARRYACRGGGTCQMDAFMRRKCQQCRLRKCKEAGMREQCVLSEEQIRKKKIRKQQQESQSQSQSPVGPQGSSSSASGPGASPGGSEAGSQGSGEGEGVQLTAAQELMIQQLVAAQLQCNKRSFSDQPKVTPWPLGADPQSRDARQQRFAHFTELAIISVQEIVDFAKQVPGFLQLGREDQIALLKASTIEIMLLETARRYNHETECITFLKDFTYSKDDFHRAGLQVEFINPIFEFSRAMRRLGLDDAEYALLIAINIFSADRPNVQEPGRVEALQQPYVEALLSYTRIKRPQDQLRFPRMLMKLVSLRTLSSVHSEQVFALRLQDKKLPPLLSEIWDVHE

[29] = Luminescence-based cell-based high throughput dose response assay to identify activators of the DAF-12 from the parasite S. stercoralis (ssDAF-12).; assay type: functional
[30] = target: T5, Heat shock factor protein 1 (Mus musculus, UniProt P38532); assay: HSF1 potentiators in luciferase reporter cells, confirmation, cell-based, NIH3T3, luminescence, dose retest (AID 435004); assay type: functional;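 also: stress induced by proteasome inhibitor MG132 added 30 min after compound; luciferase reporter driven by HSF1 response element in NIH3T3 cells; actives raise luminescence as potentiators of the MG132 stress response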
T5 sequence (P38532 whole entry): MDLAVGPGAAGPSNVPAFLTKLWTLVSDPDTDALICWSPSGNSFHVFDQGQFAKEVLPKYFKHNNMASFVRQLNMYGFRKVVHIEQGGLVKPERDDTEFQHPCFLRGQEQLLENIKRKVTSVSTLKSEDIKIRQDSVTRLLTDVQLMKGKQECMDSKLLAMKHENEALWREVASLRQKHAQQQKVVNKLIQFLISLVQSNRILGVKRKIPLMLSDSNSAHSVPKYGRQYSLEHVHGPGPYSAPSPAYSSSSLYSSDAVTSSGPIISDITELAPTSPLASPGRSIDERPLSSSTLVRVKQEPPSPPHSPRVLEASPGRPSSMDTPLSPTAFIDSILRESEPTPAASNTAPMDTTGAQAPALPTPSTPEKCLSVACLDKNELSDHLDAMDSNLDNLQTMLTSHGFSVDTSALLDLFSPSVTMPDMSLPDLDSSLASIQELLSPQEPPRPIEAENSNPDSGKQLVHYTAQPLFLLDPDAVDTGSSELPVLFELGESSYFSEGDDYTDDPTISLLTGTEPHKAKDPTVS

[31] = target: Wee1-like protein kinase (Homo sapiens, UniProt P30291); assay: Dose Response Cell-based Assay for Inhibitors of Wee1 Degradation. [Related pubchem assays: 1410, 1321 ]; assay type: functional
Chain of Wee1-like protein kinase (P30291 whole entry): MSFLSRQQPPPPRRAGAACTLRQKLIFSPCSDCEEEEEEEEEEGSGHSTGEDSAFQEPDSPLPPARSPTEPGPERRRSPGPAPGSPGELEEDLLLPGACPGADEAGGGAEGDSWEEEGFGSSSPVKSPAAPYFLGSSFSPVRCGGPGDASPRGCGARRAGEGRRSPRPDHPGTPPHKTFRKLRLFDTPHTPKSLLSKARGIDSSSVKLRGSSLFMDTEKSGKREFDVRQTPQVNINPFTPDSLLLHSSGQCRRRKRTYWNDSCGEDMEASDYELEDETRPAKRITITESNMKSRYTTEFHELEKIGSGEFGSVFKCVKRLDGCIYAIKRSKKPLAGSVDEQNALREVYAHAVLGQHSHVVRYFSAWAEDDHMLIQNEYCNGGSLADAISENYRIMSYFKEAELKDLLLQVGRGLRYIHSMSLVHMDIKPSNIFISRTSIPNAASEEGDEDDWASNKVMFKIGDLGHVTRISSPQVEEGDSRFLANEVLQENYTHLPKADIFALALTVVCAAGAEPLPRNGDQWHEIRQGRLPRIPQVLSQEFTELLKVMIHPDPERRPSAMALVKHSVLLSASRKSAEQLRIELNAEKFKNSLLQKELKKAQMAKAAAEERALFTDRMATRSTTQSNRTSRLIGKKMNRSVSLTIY

[32] = target: G2/mitotic-specific cyclin-B1 (Homo sapiens, UniProt P14635); assay: Counterscreen assay for inhibitors of Wee1 degradation: dose response cell-based assay to identify inhibitors of cyclin B degradation. [Related pubchem assays: 1410, 1321 ]; assay type: functional
Chain of G2/mitotic-specific cyclin-B1 (P14635 whole entry): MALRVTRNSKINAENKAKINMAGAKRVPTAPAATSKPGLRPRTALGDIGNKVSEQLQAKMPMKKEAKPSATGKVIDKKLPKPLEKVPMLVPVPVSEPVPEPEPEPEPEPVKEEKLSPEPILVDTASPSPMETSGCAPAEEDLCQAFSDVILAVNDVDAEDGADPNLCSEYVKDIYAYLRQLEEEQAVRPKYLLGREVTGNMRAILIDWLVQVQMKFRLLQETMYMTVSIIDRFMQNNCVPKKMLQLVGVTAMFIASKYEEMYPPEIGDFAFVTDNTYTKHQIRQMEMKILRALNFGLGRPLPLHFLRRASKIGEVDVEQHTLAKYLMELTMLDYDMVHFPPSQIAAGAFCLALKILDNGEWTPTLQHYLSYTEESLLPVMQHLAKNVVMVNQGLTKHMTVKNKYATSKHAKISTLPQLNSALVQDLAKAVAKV

[33] = system: BJ; assay: cells; assay type: functional, cell-based, Homo sapiens; details: Homo sapiens, BJ
[34] = cells; assay type: functional, cell-based
[35] = cytotoxicity toward DRD oncogenic fibroblasts, dose response, cell-based, non-viral oncogenic, luminescence (AID 1934); assay type: functional; details: Homo sapiens
[36] = system: INS1; assay: beta cell apoptosis inhibitors, cytokine rescue, dose response, luminescence, retest (AID 449756); assay type: functional, cell-based; details: Rattus norvegicus;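 also: cell death triggered by IL-1 beta plus TNF-alpha plus IFN-gamma mixture; protective hits raise ATP signal compared with cytokine alone wells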
[37] = system: BJ; assay: cytotoxicity toward BJ-TERT fibroblasts, dose response, cell-based, RAS-independent, luminescence (AID 1933); assay type: functional; details: Homo sapiens
[38] = cells; assay type: functional, cell-based; remark: listed apart in the source
[39] = system: BJ; assay: cytotoxicity toward BJ-TERT-LT-ST fibroblasts, dose response, cell-based, RAS-independent, luminescence (AID 1935); assay type: functional; details: Homo sapiens;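 also: BJ fibroblasts immortalized with TERT plus LT and ST oncogenes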

CCOC(=O)c1cnc(-n2nc(C)cc2C)nc1NC1CCCCC1
AC50 [1]: 33.4 µM (active)
IC50 [2]: 6.65 µM (active)
EC50 [3]: 1.2 µM (active)
AC50 [4]: 4.48 µM (active)
AC50 [5]: 18.1 µM (active)
EC50 [6]: 14.5 µM (inactive)
CC50 [7]: 11.5 µM (active)
AC50 [8]: 3.01 µM (active)
IC50 [9]: 7.02 µM (active)
AC50 [10]: 27.1 µM (active)
AC50 [11]: 3.29 µM (active)
IC50 [12]: > 67 µM (not active)
AC50 [13]: 35.5 µM (active)
AC50 [14]: 21.3 µM (active)
EC50 [15]: 2.5 µM (active)
IC50 [16]: > 29.9 µM (inactive)
EC50 [17]: 12.8 µM (active)
EC50 [18]: 1.82 µM (active)
IC50 [19]: 4.39 µM (active)

Nc1ccc(-c2cnc(N)c(C(=O)c3cccnc3)n2)cn1
AC50 [20]: 36.7 µM (active)

CCN1CCN(C2=C(Cl)C(=O)N(c3ccc(C)cc3)C2=O)CC1
IC50 [21]: > 50 µM (inconclusive)

O=C(NCCN1CCCCCC1)C1CCC(CNS(=O)(=O)c2cccc3cccnc23)CC1 (stereo not given)
IC50 [22]: > 100 µM (inactive)

N#Cc1ccc(Cl)cc1NC(=O)COC(=O)c1ccc2c(c1)OCCO2
IC50 [23]: 2.78 µM (active)
IC50 [24]: > 39.8 µM (not active)

c1cc[n+](CCC[n+]2ccccc2)cc1
IC50 [25]: 96.5 µM (active)
IC50 [26]: 3.68 µM (active)

O=C(O)c1ccc(/C=N/Nc2ccc(C(F)(F)F)cn2)cc1
AC50 [27]: 7.95 µM (active)
EC50 [28]: > 67.6 µM (inactive)
IC50 [29]: > 67.6 µM (inactive)
AC50 [20]: 5.54 µM (active)

CCOC(=O)N1CCN(C(=O)c2cc(-c3ccc(OCC)cc3)nc3ccccc23)CC1
EC50 [30]: 14.5 µM (active)
EC50 [31]: > 49.7 µM (not active)
EC50 [32]: > 49.7 µM (not active)

Cc1ccc(Nc2c(-c3ccccn3)nc3cccc(C)n23)cc1
IC50 [2]: 8.52 µM (active)
EC50 [3]: 0.488 µM (active)
AC50 [4]: 25.6 µM (active)
AC50 [8]: 1.9 µM (active)
AC50 [11]: 0.907 µM (active)
IC50 [12]: 45.1 µM (not active)
EC50 [33]: 14.3 µM (active)
EC50 [15]: 1.35 µM (active)
EC50 [34]: > 350 µM (not active)
EC50 [17]: < 6 µM (inconclusive)
EC50 [35]: 13.5 µM (active)
EC50 [18]: 0.77 µM (active)
AC50 [36]: 2.77 µM (active)
EC50 [37]: 6.81 µM (active)
EC50 [38]: 12.7 µM (active)
EC50 [39]: 8.61 µM (inconclusive)

O=C(O)CSc1ccc2cc(O)ccc2c1
IC50 [21]: > 100 µM (not active)
